Assay: method code SF-AS, from DOI: 10.1016/0006-2952(66)90048-7
Conditions: for logD: pH 7.0

logP | logD | Structure (SMILES)
0.74 |  | O=C(Nc1ccccc1C(=O)O)c1ccccc1O
-0.62 |  | CC(=O)Oc1cccc(OC(C)=O)c1C(N)=O
0.6 |  | NC(=O)c1c(O)cccc1O
1.92 |  | O=C(NC(=O)c1ccccc1O)c1ccccc1O
1.38 |  | O=C(NC(=O)c1ccccc1O)c1ccccc1
 | 1.43 | O=C(Nc1ccccc1)c1c(O)cccc1O
-0.15 |  | NC(=O)c1ccc(O)cc1O
0.86 |  | O=C(NC(=O)c1ccc(O)cc1O)c1ccc(O)cc1O
0.32 |  | O=C(O)c1ccccc1NC(=O)c1c(O)cccc1O
 | 0.89 | NC(=O)c1ccccc1O
1.15 |  | O=C(NC(=O)c1c(O)cccc1O)c1c(O)cccc1O

Reference: the SangsterLogP compilation
